Reference: patent US20220226392A1, “COMPOSITIONS AND PROCESS FOR INTEGRATING CELLS INTO EPITHELIUM” (Medizinische Hochschule Hannover, priority 2019, published 2022)

How the values were obtained:
[1] = system: human primary venous endothelial cells; assay: Loosening and regeneration of a confluent endothelial cell monolayer after contact with 17β-estradiol (phase contrast, anti-VE-cadherin and DAPI staining); assay type: cell-based
Experimental: As an example for an endothelium, human primary venous endothelial cells were cultivated in EGM-medium under cell culture conditions until reaching confluence. Then, the medium was removed from this exemplary epithelium and replaced by fresh EGM-medium containing 17β-estradiol in a concentration of 1 μM, 10 μM, 30 μM, 100 μM, or 300 μM. The concentrations of 17β-estradiol are also indicated in the rows of FIG. 1. […] Subsequent to the presence of the 17β-estradiol in medium, this first composition was removed and replaced by EGM-medium without added 17β-estradiol, with subsequent incubation for 4 h under cell culture conditions. The result is depicted in FIG. 1 in column C in phase contrast, and in column D after immunological staining for VE-cadherin as an essential component of adherens junctions between cells, and DAPI staining for nuclei.

[2] = system: human primary venous endothelial cells; assay: Integration of suspended eGFP-expressing iPSC-derived endothelial cells into an endothelial cell layer pre-treated with 17β-estradiol; assay type: cell-based
Experimental: A confluent layer of human primary venous endothelial cells cultivated in EGM-medium was used as a representative for endothelium. This endothelial cell layer was contacted with a first composition containing 17β-estradiol in a concentration yielding 100 μM 17β-estradiol in fresh cell culture medium. After incubating this endothelial cell layer under cell culture conditions for 30 min in the presence of 100 μM 17β-estradiol, the medium was removed and replaced by a suspension of iPSC-derived endothelial cells that were genetically manipulated to constitutively express enhanced green fluorescent green protein (eGFP) in EGM-medium without added 17β-estradiol.

[3] = system: human umbilical vein endothelial cells; settings: 10 nM 17β-estradiol; cited from earlier work
[4] = system: uterine human microvascular endothelial cells; settings: 10 nM 17β-estradiol; cited from earlier work

C[C@]12CC[C@@H]3c4ccc(O)cc4CC[C@H]3[C@@H]1CC[C@@H]2O [17β-estradiol]
concentration at which the endothelial layer was loosened, respectively shows disintegration ([1]; 30 min in EGM-medium, tested 1, 10, 30, 100, 300 μM, FIG. 1 columns A, B): at least 10 μM | state of the endothelial layer after removal of 17β-estradiol ([1]; 4 h incubation in EGM-medium without 17β-estradiol after 30 min exposure, VE-cadherin and DAPI staining, FIG. 1 columns C, D): a closed layer of the endothelial cells is re-established | integration of eGFP-labelled endothelial cells of the suspension into the endothelial layer ([2]; 100 μM 17β-estradiol for 30 min, then 4 h incubation with cell suspension without 17β-estradiol, FIG. 2 column B): efficiently integrate between the original endothelial cells | effect on endothelial cell layer and VE-cadherin expression ([2]; 100 μM 17β-estradiol, 30 min, FIG. 2 column A): loosening of the cell layer and loss of VE-cadherin expression | permeability for FITC-labelled dextran of monolayer [3]: increases the permeability | permeability for FITC-labelled dextran of monolayer [4]: increases the permeability
